Laboratory results as given in US8207167B2, “Aryl-phenyl-sulfonamide-phenylene compounds and their use” (PIMCO 2664 Limited, priority 2008, dated 2012).
Values after ≈ are worked out from the molar mass of the structure shown.

How the values were obtained:
J774 macrophages = assay: Alamar Blue macrophage J774 viability assay; assay type: cell-based; conditions: 72 hours culture with compound, Alamar Blue read-out
Protocol: (§1) Initial screening of candidate compounds was performed using in vitro assays to determine potency, metabolic stability and solubility in biologically relevant fluids. Potency was assessed using a viability assay based on the survival of the J774 macrophage cell line. Macrophages are closely related to osteoclasts and have been used previously as a model system for osteoclast survival (see, e.g., Luckman et al., 1998). Like osteoclasts, J774 macrophages are dependent on continued NFκB activation for survival, thereby providing a valuable screen for compounds with anti-inflammatory activity. Metabolic stability was measured by determining the rate of disappearance of compound in the presence of human liver microsomal preparations, as quantified by LC-MS/MS. Solubility was measured by equilibration of the compound in fasted state simulated intestinal fluid (FaSSIF) and quantified by HPLC.
In vitro potency as anti-inflammatory agents was determined for a number of APSAP compounds by incubation with J774 macrophages and subsequent determination of cell viability.
J774 cells were plated at 10^4 cells per well in 100 μL αMEM (α Modified Eagle Medium) in 96-well plates and grown overnight. The next day, test compounds were added to the cultures, and cultures were continued for another 72 hours. At the end of the culture period, cell survival was determined using an Alamar Blue assay as previously described (see, e.g., Nociari et al., 1998).
Alamar Blue is an oxidation-reduction sensitive indicator. The dye itself is in the oxidised state, which is blue and non-fluorescent. The dye can accept electrons from reducing species, such as NADPH and FADH, to form a reduced dye species, which is red and fluorescent. Thus the transformation from oxidised form to reduced form can be measured by fluorimetric or colourimetric means. For fluorescence measurements, 530-560 nm excitation and 590 nm emission wavelengths are typically used. For colourimetric measurements, absorbance at 570 nm (reduced form) and 600 nm (oxidised form) is typically measured. A simple calculation is performed to determine the relative quantities of the two species.
A high ratio of the reducing species, NADPH and FADH, to the corresponding oxidised species, NADP and FAD, is an indicator that cells are proliferating and viable. A low ratio indicates cells that are quiescent or non-viable.
Briefly, Alamar Blue (Biosource International) was added undiluted to each well (1:10 v/v, 10 μL). The plate was incubated at 37° C. for 3-4 hours and the fluorescence was measured at 590 nm, with a 25 nm bandwidth. A high reading indicated cells with normal viability, and a low reading indicated cells that have been damaged and are no longer proliferating normally. The controls gave a high fluorescence reading, indicating a high number of live, healthy cells. A potent test compound gave a low fluorescence reading.
The average results for each test compound (n=5) were expressed as a percent (%) of the average control value.
Addition of Compounds. All of the compounds studied were made up as 100 mM solutions in DMSO. These stock solutions were then diluted 1000-10000× in culture medium (αMEM). From these 100 μM or 10 μM solutions, convenient quantities (3-33 μL) were added directly to the wells so as to give the desired final compound concentration.

[1] = Thermodynamic aqueous solubility in fasted state simulated intestinal fluid (FaSSIF); assay type: physicochemical; conditions: 25° C., 24 hours equilibration, HPLC; for solubility at 24 h: pH 6.5, thermodynamic from solid
Protocol: as §1
Thermodynamic aqueous solubility was measured by equilibration of a number of APSAP compounds, in the solid state, with fasted state simulated intestinal fluid (FaSSIF) and quantified by HPLC. Measurement of solubility in FaSSIF provides a valuable model for the prediction of drug dissolution following oral administration.
Preparation of blank FaSSIF: NaOH pellets (174 mg), NaH2PO4.2H2O (2.235 g), and NaCl (3.093 g) were dissolved in 500 mL of water. The pH was adjusted to 6.5 using 1 M NaOH solution.
Preparation of FaSSIF: Sodium taurocholate (165 mg) was dissolved in 25 mL blank FaSSIF. 0.6 mL of a solution containing 100 mg/mL lecithin in methylene chloride was added. The methylene chloride was eliminated under vacuum at about 40° C. The vacuum was drawn for 15 minutes at 250 mbar, followed by 15 minutes at 100 mbar. […] After cooling to room temperature, the solution was then adjusted to 100 mL with blank FaSSIF.
The suspension was equilibrated at 25° C. for 24 hours, and then the pH was measured. The suspension was then filtered through a glass fibre C filter into a 96-well plate. The filtrate was then diluted by a factor of 100. Quantification was made by HPLC with reference to a standard solution of compound at approximately 0.1 mg/mL in DMSO. Different volumes of the standard, diluted and undiluted sample solutions were injected. The solubility was calculated using the peak areas determined by integration of the peak found at the same retention time as the principal peak in the standard injection. Analysis was performed on an Agilent HP1100 series system equipped with a diode array detector and using ChemStation software vB.02.01-SR1.

[2] = Human liver microsomal stability assay; assay type: in vitro ADME; conditions: pooled human liver microsomes 0.5 mg/mL, test compound 3 μM, 45 minute incubation, NADPH; for half-life at 3 μM: both sexes, pH 7.4
Protocol: as §1
Metabolic stability of APSAP derivatives was measured by determination of the rate of compound disappearance when incubated in the presence of human liver microsomes. Liver microsomes are prepared from the endoplasmic reticulum of hepatocytes and are the primary source of the most important enzymes (cytochrome P450) involved in drug metabolism. Study of drug stability in the presence of liver microsomes is accepted as a valuable model permitting rapid prediction of in vivo drug stability.
Human liver microsomes were obtained from a commercial source. Test compounds (3 μM) were incubated with pooled liver microsomes (male and female). Samples were incubated for a 45 minute period and removed at 5 time points and test compounds were analysed by LC-MS/MS.
The final incubation volume was 25 μL. A control incubation was included for each compound tested, where 0.1 M phosphate buffer pH 7.4 was added instead of NADPH. The control compounds testosterone and 7-hydroxycoumarin were included in each experiment and all incubations were performed singularly for each compound.
Each compound was incubated for 0, 5, 15, 30, and 45 minutes. The control (minus NADPH) was incubated for 45 minutes only. The reactions were stopped by the addition of 50 μL methanol containing internal standard at the appropriate time points. The incubation plates were centrifuged at 2500 rpm for 20 minutes at 4° C. to precipitate the protein.
Following protein precipitation, the sample supernatants were combined in cassettes of up to 4 compounds and analysed using standard LC-MS/MS conditions.
From a plot of the natural logarithm of the peak area ratio (i.e., the ratio of compound peak area:internal standard peak area) against time, the gradient of the line was determined. Subsequently, half-life and intrinsic clearance were calculated using the equations below: Eliminated rate constant(k)=(−gradient). […] Intrinsic Clearance(CLint)([…])=(V×0.693)/t1/2. wherein V=Incubation volume(μL/mg microsomal protein). Pharmacokinetics Studies

[3] = fasted state simulated intestinal fluid (FaSSIF)

| SMILES | half-life at 3 μM [2] [min] | solubility at 24 h [1, 3] [mg/mL] | IC50 (J774 macrophages; Mus musculus) [µM] | further results |
| --- | --- | --- | --- | --- |
| O=S(=O)(Nc1cccc(CO)c1)c1ccc(-c2ccc(F)cc2F)cc1 [ABD456, 2′,4′-difluoro-biphenyl-4-sulfonic acid (3-hydroxymethyl-phenyl)-amide, reference compound] | – | – | 0.25 | solubility at 24 h [1]: 0.05 mg/mL (≈ 133 µM) |
| O=S(=O)(Nc1ccc(CO)cc1)c1ccc(-c2ccc(F)cc2F)cc1 [ABD466, 2′,4′-difluoro-biphenyl-4-sulfonic acid (4-hydroxymethyl-phenyl)-amide, reference compound] | 2 | – | 3 | solubility at 24 h [1]: 0.04 mg/mL (≈ 107 µM) |
| Cc1c(CO)cccc1NS(=O)(=O)c1ccc(-c2ccc(F)cc2F)cc1 [ABD527, reference compound] | – | – | – | Solubility [1]: 0.04 mg/mL (≈ 103 µM) |
| O=S(=O)(Nc1ccc(CO)c(CO)c1)c1ccc(-c2ccc(F)cc2F)cc1 [ABD565, reference compound] | – | – | – | Solubility [1]: 0.03 mg/mL (≈ 74 µM) |
| O=S(=O)(Nc1cccc(CO)c1)c1ccc(-c2ccc(Cl)cc2F)cc1 [ABD575, reference compound] | – | – | – | IC50 (J774 macrophages): 0.4 µM; Solubility [1]: 0.07 mg/mL (≈ 179 µM) |
| O=S(=O)(Nc1cc(CO)ccc1O)c1ccc(-c2ccc(F)cc2F)cc1 [ABD585, reference compound] | – | – | – | Solubility [1]: 0.07 mg/mL (≈ 179 µM) |
| O=C(O)c1cccc(NS(=O)(=O)c2ccc(-c3ccc(Cl)cc3Cl)cc2)c1 [ABD612, 3-(2′,4′-Dichlorobiphenyl-4-ylsulfonamido)benzoic acid, reference compound] | – | 0.13 (≈ 308 µM) | – | T1/2 [2]: Stable |
| O=S(=O)(Nc1cccc(CCO)c1)c1ccc(-c2ccc(Cl)cc2Cl)cc1 [ABD625, reference compound] | – | – | – | T1/2 [2]: 13 min |
| O=S(=O)(Nc1cccc(CCO)c1)c1ccc(-c2ccc(Br)cc2)cc1 [ABD630, reference compound] | – | – | – | T1/2 [2]: 43 min; Solubility [1]: 0.06 mg/mL (≈ 139 µM) |
| CN(C)CC(O)c1cccc(NS(=O)(=O)c2ccc(-c3ccc(F)cc3F)cc2)c1 (stereo not shown) [ABD784, N-(3-(2-(Dimethylamino)-1-hydroxyethyl)phenyl)-2′,4′-difluorobiphenyl-4-sulfonamide] | – | – | 1.43 | – |
| CN[C@@H](CO)c1cccc(NS(=O)(=O)c2ccc(-c3ccc(F)cc3F)cc2)c1 [ABD810, (R)-2′,4′-Difluoro-N-(3-(2-hydroxy-1-(methylamino)ethyl)phenyl)biphenyl-4-sulfonamide] | – | – | 1.02 | – |
| CN[C@H](CO)c1cccc(NS(=O)(=O)c2ccc(-c3ccc(F)cc3F)cc2)c1 [ABD811, (S)-2′,4′-Difluoro-N-(3-(2-hydroxy-1-(methylamino)ethyl)phenyl)biphenyl-4-sulfonamide] | – | – | 0.35 | – |
| N[C@@H](CO)c1cccc(NS(=O)(=O)c2ccc(-c3ccc(F)cc3F)cc2)c1 [ABD854, (R)—N-(3-(1-Amino-2-hydroxyethyl)phenyl)-2′,4′-difluorobiphenyl-4-sulfonamide] | – | – | 1.35 | – |
| CC(N)(CO)c1cccc(NS(=O)(=O)c2ccc(-c3ccc(F)cc3F)cc2)c1 (stereo not shown) [ABD862, N-(3-(2-Amino-1-hydroxypropan-2-yl)phenyl)-2′,4′-difluorobiphenyl-4-sulfonamide] | – | – | 2.43 | – |

Now from value to compound, other results behind:

| half-life at 3 μM [2] [min] | solubility at 24 h [1, 3] [mg/mL] | SMILES | IC50 (J774 macrophages; Mus musculus) [µM] | further results |
| --- | --- | --- | --- | --- |
| 18 | – | O=S(=O)(Nc1cccc(CCO)c1)c1ccc(-c2ccc(F)cc2F)cc1 [ABD628, 2′,4′-difluoro-biphenyl-4-sulfonic acid [3-(2-hydroxy-ethyl)-phenyl]-amide, reference compound] | – | – |
| 12 | 0.14 (≈ 321 µM) | CC(C)(O)c1cccc(NS(=O)(=O)c2ccc(-c3ccc(Cl)cc3Cl)cc2)c1 [ABD707, 2′,4′-Dichloro-N-(3-(2-hydroxypropan-2-yl)phenyl)biphenyl-4-sulfonamide] | 0.09 | – |
| 6 | 0.1 (≈ 237 µM) | CC(O)c1cccc(NS(=O)(=O)c2ccc(-c3ccc(Cl)cc3Cl)cc2)c1 (stereo not shown) [ABD708, 2′,4′-Dichloro-N-(3-(1-hydroxyethyl)phenyl)biphenyl-4-sulfonamide] | 0.18 | – |
| 18 | 0.07 (≈ 161 µM) | O=S(=O)(Nc1cccc(C2(O)CC2)c1)c1ccc(-c2ccc(Cl)cc2Cl)cc1 [ABD709, 2′,4′-Dichloro-N-(3-(1-hydroxycyclopropyl)phenyl)biphenyl-4-sulfonamide] | 0.38 | – |
| 21 | 0.09 (≈ 207 µM) | CN(C)Cc1cccc(NS(=O)(=O)c2ccc(-c3ccc(Cl)cc3Cl)cc2)c1 [ABD724, 2′,4′-Dichloro-N-(3-((dimethylamino)methyl)phenyl)biphenyl-4-sulfonamide] | 0.3 | – |
| 15 | 0.02 (≈ 44.5 µM) | CN(C)C(=O)c1cccc(NS(=O)(=O)c2ccc(-c3ccc(Cl)cc3Cl)cc2)c1 [ABD730, 3-(2′,4′-Dichlorobiphenyl-4-ylsulfonamido)-N,N-dimethylbenzamide] | – | – |
| 11 | 0.008 (≈ 19 µM) | CC(=O)c1cccc(NS(=O)(=O)c2ccc(-c3ccc(Cl)cc3Cl)cc2)c1 [ABD746, N-(3-Acetylphenyl)-2′,4′-dichlorobiphenyl-4-sulfonamide, reference compound] | – | – |
| 46 | 0.04 (≈ 87.5 µM) | NS(=O)(=O)c1cccc(NS(=O)(=O)c2ccc(-c3ccc(Cl)cc3Cl)cc2)c1 [ABD751, 2′,4′-Dichloro-N-(3-sulfamoylphenyl)biphenyl-4-sulfonamide] | 0.87 | – |
| 16 | 0.02 (≈ 42 µM) | O=S(=O)(Nc1cccc(C(O)C(F)(F)F)c1)c1ccc(-c2ccc(Cl)cc2Cl)cc1 (stereo not shown) [ABD766, 2′,4′-Dichloro-N-(3-(2,2,2-trifluoro-1-hydroxyethyl)phenyl)biphenyl-4-sulfonamide] | 0.71 | – |
